Experimental data from PMC7058083, “Structural basis of ligand binding modes at the human formyl peptide receptor 2” (Nature Communications, 2020).
Residue numbers refer to the chain shown, from its start. Residues, ends and D or L forms follow the SMILES beside them. *: point of attachment. For = O=C*

What was measured:
[1] = target: T1, wild-type (WT) and mutant FPR2 (Homo sapiens, UniProt P25090, D281A); test: Saturation binding of WK(FITC)YMVm, flow cytometry on HEK293F cells; conditions: FPR2 D281A
T1 construct: expressed in transfected cells; host or cells: HEK293F
T1 sequence (P25090 whole entry D281A): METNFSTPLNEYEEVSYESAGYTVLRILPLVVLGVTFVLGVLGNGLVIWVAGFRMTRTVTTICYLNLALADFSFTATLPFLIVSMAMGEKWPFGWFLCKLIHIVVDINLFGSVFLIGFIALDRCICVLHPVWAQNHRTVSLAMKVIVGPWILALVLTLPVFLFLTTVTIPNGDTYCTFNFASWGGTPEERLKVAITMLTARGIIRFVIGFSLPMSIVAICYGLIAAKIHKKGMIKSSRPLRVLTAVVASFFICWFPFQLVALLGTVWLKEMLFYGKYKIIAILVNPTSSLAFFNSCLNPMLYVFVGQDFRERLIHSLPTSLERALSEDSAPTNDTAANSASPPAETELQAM
Description: (§1) Flag-tagged wild-type and mutant FPR2s were cloned into the pTT5 vector and expressed in HEK293F cells. The cells were harvested, and washed with Hanks’ Balanced Salt Solution (HBSS) buffer supplemented with 0.5% bovine serum albumin and 20 mM HEPES, pH 7.4. The cells were then resuspended in the same buffer to the final concentration of 1 × 10^6 cells per ml. The cell-surface expression was measured as mentioned above. […] Mean fluorescent intensity of each well was then read by a FCM (flow cytometry) reader (Millipore). […] For competitive binding of fMLFK, cells were plated in 96-well plates (100,000 cells per well), and incubated with WK(FITC)YMVm at 4 °C for 1 h. The following concentrations of WK(FITC)YMVm were used: 10 nM (wild type, L81^2.60F, E89G, and V105^3.32A), 30 nM (D281^7.32G), 40 nM (H102^3.29F, V160^4.60A, L268^ECL3A, N285^7.36A, and F292^7.43A), and 100 nM (L164^4.64A and T177A). Then increasing concentrations of fMLFK (100 nM–1 mM) were added, and incubated for another 1 h on ice. Mean fluorescent intensity values were measured by flow cytometry. Data were analyzed using Prism 7.0.

[2] = target: T2, wild-type (WT) and mutant FPR2 (Homo sapiens, UniProt P25090, D281G); test: as above; conditions: FPR2 D281G
T2 construct: expressed in transfected cells; host or cells: HEK293F
T2 sequence (P25090 1-351 D281G): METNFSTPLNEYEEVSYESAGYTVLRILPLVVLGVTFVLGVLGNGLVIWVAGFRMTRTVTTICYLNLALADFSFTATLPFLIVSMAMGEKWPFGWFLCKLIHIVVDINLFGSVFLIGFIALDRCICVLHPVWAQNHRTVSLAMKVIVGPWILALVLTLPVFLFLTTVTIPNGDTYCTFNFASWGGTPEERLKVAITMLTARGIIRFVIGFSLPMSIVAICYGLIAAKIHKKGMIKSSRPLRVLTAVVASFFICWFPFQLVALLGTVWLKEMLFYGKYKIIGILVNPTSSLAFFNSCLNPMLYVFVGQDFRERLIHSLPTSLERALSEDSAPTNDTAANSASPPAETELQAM
Description: as §1

[3] = target: T3, wild-type (WT) and mutant FPR2 (Homo sapiens, UniProt P25090, F257Y); test: as above; conditions: FPR2 F257Y
T3 construct: expressed in transfected cells; host or cells: HEK293F
T3 sequence (P25090 whole entry F257Y): as the sequence (P25090 whole entry D281A) above, with F257Y, A281D counted along it
Description: as §1

[4] = target: T4, wild-type (WT) and mutant FPR2 (Homo sapiens, UniProt P25090, L164A); test: as above; conditions: FPR2 L164A
T4 construct: expressed in transfected cells; host or cells: HEK293F
T4 sequence (P25090 1-351 L164A): T2 sequence (P25090 1-351 D281G) with L164A, G281D
Description: as §1

[5] = target: T5, wild-type (WT) and mutant FPR2 (Homo sapiens, UniProt P25090, L164W); test: as above; conditions: mutation L164W
T5 construct: expressed in transfected cells; host or cells: HEK293F
T5 sequence (P25090 whole entry L164W): as the sequence (P25090 whole entry D281A) above, with L164W, A281D counted along it
Description: as §1

[6] = target: T6, wild-type (WT) and mutant FPR2 (Homo sapiens, UniProt P25090, R201F); test: as above; conditions: mutation R201F
T6 construct: expressed in transfected cells; host or cells: HEK293F
T6 sequence (P25090 whole entry R201F): as the sequence (P25090 whole entry D281A) above, with R201F, A281D counted along it
Description: as §1

[7] = target: T7, wild-type (WT) and mutant FPR2 (Homo sapiens, UniProt P25090, F292A); test: Competition binding of fMLFK with WK(FITC)YMVm, flow cytometry on HEK293F cells; conditions: FPR2 F292A; mean ± s.e.m., n=3; SEM
T7 construct: expressed in transfected cells; host or cells: HEK293F
T7 sequence (P25090 1-351 F292A): T2 sequence (P25090 1-351 D281G) with G281D, F292A
Description: as §1

[8] = target: T8, wild-type (WT) and mutant FPR2 (Homo sapiens, UniProt P25090, L81F); test: as above; conditions: FPR2 L81F; mean ± s.e.m., n=4; SEM
T8 construct: expressed in transfected cells; host or cells: HEK293F
T8 sequence (P25090 1-351 L81F): T2 sequence (P25090 1-351 D281G) with L81F, G281D
Description: as §1

Span (% of WT), saturation binding [1]	Kd ([1]; mean ± s.e.m., n=3, SEM)	Span (% of WT), saturation binding [2]	Kd ([2]; mean ± s.e.m., n=4, SEM)	Span (% of WT), saturation binding [3]	Kd ([3]; mean ± s.e.m., n=3, SEM)	Span (% of WT), saturation binding [4]	Kd ([4]; mean ± s.e.m., n=3, SEM)	WK(FITC)YMVm binding [5]	WK(FITC)YMVm binding [6]	pKi, competition binding [7]	pKi, competition binding [8]	Structure (SMILES)
42 ± 8 % of WT	48.6 ± 17.6 nM	39 ± 3 % of WT	34.3 ± 14.1 nM	57 ± 6 % of WT	154 ± 48 nM	85 ± 13 % of WT	92.2 ± 25.1 nM	severely impaired	substantially reduced			CSCC[C@H](NC(=O)[C@H](Cc1ccc(O)cc1)NC(=O)[C@H](CCCCNC(=S)Nc1ccc2c(c1)C(=O)OC21c2ccc(O)cc2Oc2cc(O)ccc21)NC(=O)[C@@H](N)Cc1c[nH]c2ccccc12)C(=O)N[C@H](C(=O)N[C@H](CCSC)C(N)=O)C(C)C [WK(FITC)YMVm]
										4.54 ± 0.11	3.97 ± 0.27	CSCC[C@H](NC=O)C(=O)N[C@@H](CC(C)C)C(=O)N[C@@H](Cc1ccccc1)C(=O)N[C@@H](CCCCN)C(=O)O [fMLFK] (For-MLFK-OH)
